Patent US7402696B2, “Benzene compounds” (Ajinomoto Co., Inc., priority 2004, dated 2008)

The compounds below were run against T1, ACC (acetyl CoA carboxylase) purified from liver of male SD rat (Rattus norvegicus, UniProt P11497) (assay: Measurement of ACC inhibition activity ([14C]-NaHCO3 incorporation)). Details: ACC inhibition activity rate at 1 μM; Table 2-III, Mode 3 acetylene/oxadiazole/thiazole compounds (numbers = x-III); read-out: ACC Inhibition (%).
T1 construct: applied to a monomeric avidin sepharose column, and washed with buffer B. The ACC was eluted with buffer B containing 2 mM d-biotin; from tissue; host or cells: liver of male SD rat
Type: biochemical
Procedure: A male SD rat was deprived of food for two days and then fed a high-sucrose diet (component) for two days. While anesthetized with ether, the descending vena cava was cut upon, the animal was bled, and the liver was rapidly recovered. In an ice-cooled buffer solution A (225 mM mannitol, 75 mM sucrose, 10 mM Tris-HCl (pH 7.5), 0.05 mM EDTA, 5 mM potassium citrate, 2.5 mM MgCl2, 10 mg/L pepstatin A, 10 mg/L leupeptin, 1 mM PMSF), the liver was homogenized with a polytone homogenizer. A quantity of buffer A nine times the weight of the liver was added, the mixture was centrifuged for 10 minutes at 1,000 g, the supernatant was recovered, and the supernatant was centrifuged for another 10 minutes at 17,000 g.
Ammonium sulfate was added to 35 percent saturation to the obtained supernatant. The mixture was stirred for 45 minutes and then centrifuged for 10 minutes at 17,000 g. Buffer solution B (100 mM Tris-HCl (pH 7.5), 500 mM NaCl, 1 mM EDTA, 0.1 mM DTT, 10 percent glycerol, 10 mg/L pepstatin A, 10 mg/L leupeptin, 0.5 mM PMSF) was added to the obtained precipitate and dissolved. The solution was then centrifuged for 20 minutes at 40,000 g. The supernatant was dialyzed overnight against buffer C (100 mM Tris-HCl (pH 7.5), 500 mM NaCl, 1 mM EDTA, 0.1 mM DTT, 5 percent glycerol).
The dialyzed supernatant was passed through a […], applied to a monomeric avidin sepharose column, and washed with buffer B. The ACC was eluted with buffer B containing 2 mM d-biotin.
(2 Measurement of ACC Inhibition Activity)
The compounds synthesized in the above-described embodiments were dissolved in DMSO and charged to glass vials. 250 μL of ACC-containing reaction solution (40 mM Tris-HCl (pH 7.5), 40 mM MgCl2, 40 mM sodium citrate, and 2 mM DTT) was added. The mixture was heated for 30 minutes at 37° C. in a thermostatic chamber and then cooled with ice. To reaction solution 1 was added 250 μL of reaction solution 2 containing [14C]—NaHCO3 (40 mM Tris-HCl (pH 7.5), 2 mM DTT, 8 mM ATP, 0.5 mM acetyl CoA) and the mixture was heated for 10 minutes at 37° C. 100 μL of 1N HCl was added to stop the reaction. Water in the reaction solution was removed with a centrifugal evaporator, a scintillator was added, the solid component was dissolved, and the 14C radioactivity was measured with a liquid scintillation counter. The ACC inhibition activity of each compound was calculated from the following equation and converted to the ACC inhibition activity rate (%) at 1 μM.
ACC inhibition rate (%)=(1−(a−c)/(b−c))×100 a. Radioactivity when test drug added b: Radioactivity when test drug not added c: Blank* *Reaction solution 1 to which 100 μL of 1N HCl was added before mixing reaction solution 1 and reaction solution 2
In the case of CC(C)c1ccc(S(=O)(=O)NC(=O)c2cccc(-c3nc(-c4ccc(-c5csc(-c6ccc(C(F)(F)F)cc6)n5)cc4)no3)c2)cc1 [compound 106], the inhibition at 1 µM is reported as 97%. O=S(=O)(Nc1ccc(-c2csc(-c3ccccc3)n2)cc1)c1ccccc1NO [compound 78] showed an inhibition at 1 µM of 55%. CC(C)c1ccc(S(=O)(=O)NC(=O)c2ccc(-c3nc(-c4ccc(-c5csc(-c6ccc(C(F)(F)F)cc6)n5)cc4)no3)cc2)cc1 [compound 107] was tested, and the inhibition at 1 µM was 100%. O=C(O)c1ccccc1-c1nc(-c2ccc(-c3nc(-c4cc(C(F)(F)F)cc(C(F)(F)F)c4)cs3)cc2)cs1 [compound 1] was tested, and the inhibition at 1 µM was 62%. O=[N+]([O-])c1ccccc1S(=O)(=O)Nc1cccc(-c2csc(-c3ccccc3)n2)c1 [compound 82] showed an inhibition at 1 µM of 63%. CC(C)c1ccc(S(=O)(=O)NC(=O)c2ccc(-c3csc(-c4ccc(C#Cc5cccc(C(F)(F)F)c5)cc4)n3)cc2)cc1 [compound 105] was tested, and the inhibition at 1 µM was 99%. Work on O=C(O)C1C=CC=CC1c1nc(-c2ccc(-c3csc(-c4ccc(C(F)(F)F)cc4)n3)cc2)no1 (stereo not drawn) [compound 49] yielded an inhibition at 1 µM of 62%. With O=C1C(c2ccccc2)=C(c2ccccc2)C(=O)N1c1cccc(C#Cc2cccc(C(F)(F)F)c2)c1 [compound 74] the inhibition at 1 µM was 66%. O=C(O)c1ccccc1C(=O)Nc1ccc(C#Cc2cccc(C(F)(F)F)c2)cc1 [compound 10] gave an inhibition at 1 µM of 61%.

Same assay, conditions: ACC inhibition activity rate at 1 μM; Table 3-I, Mode 1 quinoline compounds (numbers = x-I); read-out: ACC Inhibition (%)
CCCCS(=O)(=O)NC(=O)C1CCCCCC[C@@H]1NC(=O)c1ccc2nc(-c3cc(C(F)(F)F)cc(C(F)(F)F)c3)ccc2c1 (stereo partly drawn) [compound 55] gave an inhibition at 1 µM of 70%. Compound CCCCS(=O)(=O)NC(=O)C1CCc2ccccc2[C@@H]1NC(=O)c1ccc2nc(-c3cc(C(F)(F)F)cc(C(F)(F)F)c3)ccc2c1 (stereo partly drawn) [compound 57] has an inhibition at 1 µM of 59%. Work on CCCCS(=O)(=O)NC(=O)CC(NC(=O)c1ccc2nc(-c3cc(C(F)(F)F)cc(C(F)(F)F)c3)ccc2c1)c1cccc(N)c1 (stereo not drawn) [compound 102] yielded an inhibition at 1 µM of 45%. CCCCCC(=O)NS(=O)(=O)c1ccccc1NC(=O)c1ccc2nc(-c3cccc(C(F)(F)F)c3F)ccc2c1 [compound 110] showed an inhibition at 1 µM of 50%. CC(C)c1ccc(S(=O)(=O)NC(=O)CC(NC(=O)c2ccc3nc(-c4cc(C(F)(F)F)cc(C(F)(F)F)c4)ccc3c2)c2ccccc2)cc1 (stereo not drawn) [compound 49] showed an inhibition at 1 µM of 62%. With CC(C)c1ccc(S(=O)(=O)NC(=O)c2ccccc2-c2csc(-c3ccc4nc(-c5cc(C(F)(F)F)cc(C(F)(F)F)c5)ccc4c3)n2)cc1 [compound 115] the inhibition at 1 µM was 97%.

Same assay, conditions: ACC inhibition activity rate at 1 μM; Table 3-II, Mode 2 benzimidazole compounds (numbers = x-II); read-out: ACC Inhibition (%)
CCCCCC(=O)NS(=O)(=O)c1ccccc1NC(=O)c1ccc2c(c1)nc(-c1cc(C(F)(F)F)cc(C(F)(F)F)c1)n2CCC(C)C [compound 1] was tested, and the inhibition at 1 µM was 50%. With O=C(O)c1cccc(-c2noc(-c3ccc4c(c3)nc(-c3ccccc3)n4-c3ccc(C(F)(F)F)cc3)n2)c1 [compound 8] the inhibition at 1 µM was 57%. With CCCCCC(=O)NS(=O)(=O)c1ccccc1NC(=O)c1ccc2c(c1)nc(-c1cc(C(F)(F)F)cc(C(F)(F)F)c1)n2-c1ccc(C(F)(F)F)cc1 [compound 2] the inhibition at 1 µM was 92%.

Same assay, conditions: ACC inhibition activity rate at 1 μM; Table 4-A, further compounds of Modes 2 and 3; read-out: ACC Inhibition (%)
Compound O=C(NS(=O)(=O)c1cccc(-c2nc(-c3ccc(-c4csc(-c5ccccc5)n4)cc3)no2)c1)c1ccc(-n2ccnc2)cc1 [Compound 138-III] has an inhibition at 1 µM of 100%. For Cn1cnc(S(=O)(=O)NC(=O)c2cccc(-c3nc(-c4ccc(-c5csc(-c6ccccc6)n5)cc4)no3)c2)c1 [Compound 139-III], the inhibition at 1 µM was 96%. With O=C(NS(=O)(=O)c1cccc(-c2nc(-c3ccc(-c4csc(-c5ccccc5)n4)cc3)no2)c1)c1cccs1 [Compound 143-III] the inhibition at 1 µM was 83%. Work on Nc1ccc(S(=O)(=O)NC(=O)c2cccc(-c3nc(-c4ccc(-c5csc(-c6ccccc6)n5)cc4)no3)c2)cc1 [Compound 132-III] yielded an inhibition at 1 µM of 96%.

Same assay, conditions: ACC inhibition activity rate at 1 μM; Table 4-IV, Mode 4 benzenediamine compounds (numbers = x-IV); read-out: ACC Inhibition (%)
For CC(C)CCN(C)c1ccc(C(=O)NC(CC(=O)NS(=O)(=O)c2cn(C)cn2)C2CCCCC2)cc1NCc1ccccc1 (stereo not drawn) [Compound 147-IV], the inhibition at 1 µM was 68%. Work on CCCCCC(=O)NS(=O)(=O)c1ccccc1NC(=O)c1ccc(Nc2ccc(C(F)(F)F)cc2)c(NC(=O)c2cccs2)c1 [compound 34] yielded an inhibition at 1 µM of 67%. With CC(C)CCN(C)c1ccc(C(=O)NC(CC(=O)NS(=O)(=O)c2ccccc2)C2CCCCC2)cc1NCc1cccs1 (stereo not drawn) [compound 91] the inhibition at 1 µM was 70%. CC(C)CCN(C)c1ccc(-c2noc(-c3cccc(C(=O)NS(=O)(=O)c4ccccc4)c3)n2)cc1NC(=O)c1ccccc1 [compound 40] was tested, and the inhibition at 1 µM was 87%. In the case of CC(C)CCNc1ccc(-c2noc(-c3cccc(C(=O)NS(=O)(=O)c4ccccc4)c3)n2)cc1[N+](=O)[O-] [compound 36], the inhibition at 1 µM is reported as 87%. With CC(C)CCN(C)c1ccc(C(=O)NC(CC(=O)NS(=O)(=O)c2ccccc2)C2CCCCC2)cc1N(C)Cc1ccccc1 (stereo not drawn) [compound 93] the inhibition at 1 µM was 84%. For CC(C)CCN(C)c1ccc(-c2noc(-c3cccc(C(=O)NS(=O)(=O)c4ccccc4)c3)n2)cc1NCC1=CCCCC1 [compound 57], the inhibition at 1 µM was 100%. In the case of Cc1ccccc1S(=O)(=O)NC(=O)CC(NC(=O)c1ccc(N(C)CCC(C)C)c(NCc2ccccc2O)c1)C1CCCCC1 (stereo not drawn) [compound 122], the inhibition at 1 µM is reported as 67%. In the case of CC(C)CCN(C)c1ccc(-c2noc(-c3cccc(C(=O)NS(=O)(=O)c4ccccc4)c3)n2)cc1N(CCCc1ccccc1)CCCc1ccccc1 [compound 56], the inhibition at 1 µM is reported as 100%. CC(C)CCN(C)c1ccc(C(=O)NC(CC(=O)NS(=O)(=O)c2ccc(C(=O)O)cc2)C2CCCCC2)cc1NCc1ccccc1 (stereo not drawn) [Compound 138-IV] was tested, and the inhibition at 1 µM was 63%. CCCCCC(=O)NS(=O)(=O)c1ccccc1NC(=O)c1ccc(Nc2ccc(C(F)(F)F)cc2)c(NC(=O)C2CCCCC2)c1 [compound 31] showed an inhibition at 1 µM of 72%. CN(c1ccc(C(=O)NC(CC(=O)NS(=O)(=O)c2ccccc2)C2CCCCC2)cc1NCCOCc1ccccc1)C1CC1 (stereo not drawn) [Compound 158-IV] was tested, and the inhibition at 1 µM was 65%. With CC(C)CCN(C)c1ccc(-c2noc(-c3cccc(C(=O)NS(=O)(=O)c4ccccc4)c3)n2)cc1NCc1ccc(O)cc1 [compound 95] the inhibition at 1 µM was 100%. Work on CC(C)CCN(C)c1ccc(-c2noc(-c3cccc(C(=O)NS(=O)(=O)c4ccccc4)c3)n2)cc1NC1C=CCCC1 (stereo not drawn) [compound 59] yielded an inhibition at 1 µM of 100%. With Cc1ccccc1S(=O)(=O)NC(=O)CC(NC(=O)c1ccc(N(C)CCC(C)C)c(N(C)CCc2ccccc2)c1)C1CCCCC1 (stereo not drawn) [Compound 153-IV] the inhibition at 1 µM was 86%. For CC(C)CCN(C)c1ccc(-c2noc(-c3cccc(C(=O)NS(=O)(=O)c4cn(C)cn4)c3)n2)cc1NCc1ccc(OCCO)cc1 [Compound 137-IV], the inhibition at 1 µM was 79%. CC(C)CCN(C)c1ccc(C(=O)NC(CC(=O)NS(=O)(=O)c2cn(C)cn2)C2CCCCC2)cc1NCC1CCCCC1 (stereo not drawn) [Compound 161-IV] gave an inhibition at 1 µM of 71%. CC(C)CCN(C)c1ccc(-c2noc(-c3cccc(C(=O)NS(=O)(=O)c4ccccc4)c3)n2)cc1NCc1ccc(OCCO)cc1 [compound 113] showed an inhibition at 1 µM of 97%. For Cc1ccccc1S(=O)(=O)NC(=O)c1cccc(-c2nc(-c3ccc(N(C)CCC(C)C)c(NCc4ccccc4)c3)no2)c1 [compound 103], the inhibition at 1 µM was 100%. CCCCCC(=O)NS(=O)(=O)c1ccccc1NC(=O)c1ccc(Nc2ccccc2)c(NC(=O)c2ccccc2)c1 [compound 23] showed an inhibition at 1 µM of 74%. Work on CC(C)CCN(C)c1ccc(-c2noc(-c3cccc(C(=O)NS(=O)(=O)c4ccccc4)c3)n2)cc1NCc1cccc(C(=O)O)c1 [compound 100] yielded an inhibition at 1 µM of 72%. CC(C)CCN(C)c1ccc(-c2noc(-c3cccc(C(=O)NS(=O)(=O)c4ccccc4)c3)n2)cc1NCc1cc(O)cc(O)c1 [compound 114] gave an inhibition at 1 µM of 77%.

Same assay, conditions: read-out: ACC Inhibition (%)
CCOP(=O)(/C=C/c1ccc(CNc2cc(-c3noc(-c4cccc(C(=O)NS(=O)(=O)c5ccccc5C)c4)n3)ccc2N(C)CCC(C)C)cc1)OCC [Compound 140-IV] showed an inhibition at 1 µM of 100%.
